Data set [1] deals with mGluR2/3. Conditions: intra-accumbens infusion, microdialysis probes; cited from earlier work.
The test system of data set [2] is mGluR2/3. Conditions: cited from earlier work; for PFC glutamate levels: infusion/perfusion into PFC, microdialysis.
The subject of data set [3] is mGluR2/3 receptors. To be noted: perfusion into the accumbens, in vivo microdialysis; cited from earlier work.
For data set [4], the target named is T1, mGluR5 (Rattus norvegicus, UniProt P31424).
T1 construct: from tissue; host or cells: brain of living Sprague-Dawley rats (nucleus accumbens for CHPG microinjection; systemic dosing for MTEP, MPEP, Fenobam)
T1 sequence (P31424 21-1203): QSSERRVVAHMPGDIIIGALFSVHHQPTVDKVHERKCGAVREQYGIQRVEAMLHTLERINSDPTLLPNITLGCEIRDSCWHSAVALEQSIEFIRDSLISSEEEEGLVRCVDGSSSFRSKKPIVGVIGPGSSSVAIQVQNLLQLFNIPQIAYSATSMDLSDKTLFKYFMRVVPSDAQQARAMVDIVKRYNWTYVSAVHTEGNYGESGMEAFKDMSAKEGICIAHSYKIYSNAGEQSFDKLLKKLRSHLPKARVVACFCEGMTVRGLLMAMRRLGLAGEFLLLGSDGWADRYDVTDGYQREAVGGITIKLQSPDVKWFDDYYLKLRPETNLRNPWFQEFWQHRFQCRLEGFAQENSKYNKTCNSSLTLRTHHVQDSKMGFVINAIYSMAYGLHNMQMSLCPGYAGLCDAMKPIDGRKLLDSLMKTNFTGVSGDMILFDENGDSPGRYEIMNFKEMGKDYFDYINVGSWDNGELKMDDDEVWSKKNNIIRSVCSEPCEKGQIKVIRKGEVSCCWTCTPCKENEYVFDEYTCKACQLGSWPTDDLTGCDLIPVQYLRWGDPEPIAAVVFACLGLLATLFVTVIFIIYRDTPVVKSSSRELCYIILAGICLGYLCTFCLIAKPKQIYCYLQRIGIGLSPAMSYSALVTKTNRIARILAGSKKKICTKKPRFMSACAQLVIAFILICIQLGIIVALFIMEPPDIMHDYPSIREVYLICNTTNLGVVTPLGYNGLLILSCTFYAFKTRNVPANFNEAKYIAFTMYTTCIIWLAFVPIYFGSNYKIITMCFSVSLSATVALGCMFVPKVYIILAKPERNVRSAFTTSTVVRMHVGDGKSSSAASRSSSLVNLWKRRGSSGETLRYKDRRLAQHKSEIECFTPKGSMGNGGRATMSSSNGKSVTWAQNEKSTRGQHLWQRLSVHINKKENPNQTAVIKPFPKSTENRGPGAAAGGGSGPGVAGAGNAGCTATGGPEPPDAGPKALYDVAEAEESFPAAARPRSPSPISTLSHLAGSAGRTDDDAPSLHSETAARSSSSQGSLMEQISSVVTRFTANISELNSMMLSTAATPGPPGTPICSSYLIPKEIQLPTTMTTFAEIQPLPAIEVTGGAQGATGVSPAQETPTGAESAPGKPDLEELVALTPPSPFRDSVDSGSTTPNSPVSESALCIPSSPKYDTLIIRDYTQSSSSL
In words: Cue-induced cocaine relapse (active lever presses), CHPG microinjected into nucleus accumbens (FIG. 1). It counts as in vivo, rats. As to the method:
Relapse was induced by presenting the animal with a tone and light compound cue that was previously associated with cocaine delivery during the self-administration training. […] Data were analyzed using one-way ANOVA (2,14)=5.20, p=0.021; *p<0.05 compared to extinction, +p<0.05 comparing cue+aCSF (artificial cerebrospinal fluid control injection).
(§1) All experiments were conducted in accordance with the US National Institutes of Health guidelines for the care and use of laboratory animals, and all procedures were approved by the Institutional Animal Care and Use Committee at the Medical University of South Carolina. One week after arrival, male Sprague-Dawley rats (250 g) were anesthetized with ketamine HCl (87.5 mg kg^−1 Ketaset, Fort Dodge Animal Health) and xylazine (5 mg kg^−1 Rompum, Bayer) and implanted with intravenous catheters. The catheters were flushed daily with cefazolin (0.2 ml of a 0.1 g/ml solution) and heparin (0.2 ml of 100 units) to prevent infection and maintain catheter patency. Rats were allowed to recover for a week before behavioral training (Baker et al. Nat. Neurosci 6:743-749, 2003).
Rats were trained to self-administer cocaine in a standard operant chamber with two retractable levers. The self-administration regimen consisted of 10d of self-administration at >10 infusions per session. […]

Data set [5] has as its target T1, mGluR5. Briefly: Cocaine+cue induced reinstatement, low-dose mGluR5 antagonists in rats given N-acetylcysteine after extinction (FIG. 6). To be noted: MPEP 1.0 mg/kg/ip or Fenobam 1.75 mg/kg/ip. The data set is classed as in vivo. As to the method:
Top, treatment protocol for cocaine, N-acetylcysteine, and mGluR5 antagonists.
Rats were injected with low doses of MPEP (1.0 mg/kg/ip) or Fenobam (1.75 mg/kg/ip) (FIG. 6), both systemically active and selective mGluR5 receptor antagonists (Carroll, 2008; Montana et al., 2009).
as §1
Rats were trained to self-administer cocaine in a standard operant chamber with two retractable levers. The self-administration regimen consisted of 10d of self-administration at >10 infusions per session. […] Cocaine self-administering rats were often paired with yoked saline controls. Extinction procedures began 24 h after the rat met the acquisition criterion and lasted for at least 3 weeks. Lever presses were inconsequential throughout the extinction training

The subject of data set [6] is mGluR2/3 receptors. To be noted: bath application, accumbens slices; cited from earlier work.
Data set [7] has as its target T1, mGluR5. Briefly: Cocaine relapse, chronic NAC or saline followed by acute MPEP (FIG. 3). It counts as in vivo. As to the method: Data were analyzed by a two-way ANOVA interaction F(1,20)=7.17, p=0.015; *p<0.05 comparing saline to MPEP.
Towards this end, the effects of chronic NAC followed by acute administration of mGluR5 modulator (MPEP) on relapse in the rat model were examined.
as §1
Rats were trained to self-administer cocaine in a standard operant chamber with two retractable levers. The self-administration regimen consisted of 10d of self-administration at >10 infusions per session. […] Cocaine self-administering rats were often paired with yoked saline controls. […]

The conditions of data set [8]: cited from earlier work.
For data set [9] the following is noted: cited from earlier work. The source holds these as a separate data set.
For data set [10] the following is noted: cited from earlier work. The source holds these as a separate data set.
In a further data set the test system is XC transporter. Conditions: cited from earlier work.
The conditions of data set [11]: humans; cited from earlier work.
The next data set has as its system system XC−. Conditions: cystine added to brain slices; cited from earlier work.
Where [12] appears, read: rats given N-acetylcysteine after extinction training.

SMILES strings stand for the structures. “Also recorded” adds a separate entry of the source. Where two headings read alike, the source gives them in different places.

Consider `O=C(O)CCC(CP(=O)(O)O)C(=O)O` (centres unmarked) [2-PMPA, 2-(phosphonomethyl)-pentanedioic acid], for which the basal dopamine levels result in the data set with mGluR2/3 [1] is “reduce”.

Consider `N[C@@]1(C(=O)O)CN[C@@H](C(=O)O)C1` [APDC, (2R,4R)-4-aminopyrrolidine-2,4-dycarboxylate], for which, in the data set on mGluR2/3 [2], the PFC glutamate levels entry is “without effect”. For the same compound, the “extracellular glutamate in the accumbens” value in the data set with mGluR2/3 receptors [3] is listed as “reduced extracellular glutamate levels”.

For the compound `NC(C(=O)O)c1cc(O)ccc1Cl` (centres unmarked) [CHPG], the “relapse induced by agonist alone” value on mGluR5 [4] (CHPG alone, without cue) is listed as “did not induce relapse”. For the same compound, the “cue-induced relapse (active lever presses)” value on mGluR5 [4] (CHPG into nucleus accumbens plus tone and light cue, rats withdrawn 3-5 weeks after cocaine self-administration) is “dose-dependant increase”.

Take `N[C@H](C(=O)O)C1[C@@H](C(=O)O)[C@@H]1C(=O)O` (stereo partly drawn) [DCG-4, (2S,1′R,2′R,3′R)-2-(2,3-dicarboxycyclopropyl)glycine]: in the data set on mGluR2/3 [1], the basal dopamine levels result is “reduce”.

Regarding `CN1CC(=O)N=C1NC(=O)Nc1cccc(Cl)c1` [Fenobam, 1-(3-chlorophenyl)-3-(3-methyl-5-oxo-4H-imidazol-2-yl)urea], the “relapse to cocaine seeking (lever pressing)” value at mGluR5 [5] (setting [12]) is reported as “significantly reduced lever pressing; also recorded: inhibit relapse”; on mGluR5 [5] (vehicle treated rats) it was “not”.

For the compound `N[C@H](C(=O)O)[C@H]1C[C@@H]1C(=O)O` [L-CCG1, (2S,1′S,2′S)-2-(2′-carboxycyclopropyl)glycine], in the data set on mGluR2/3 receptors [6], the mEPSC amplitude entry was “without affecting”, the mEPSC frequency entry is listed as “reduced” and the paired pulse ratios result was “increased”.

`N[C@](CC1c2ccccc2Oc2ccccc21)(C(=O)O)[C@H]1C[C@@H]1C(=O)O` [LY341495]: the “glutamate levels in subcortical regions (nucleus accumbens and VTA)” value in the data set with mGluR2/3 [2] (infusion in the prefrontal cortex) was “increased”. Further, in the data set on mGluR2/3 [2], the PFC glutamate levels result was “increase”. In addition, the “extracellular glutamate in the accumbens” value in the data set on mGluR2/3 receptors [3] was “increased glutamate release”.

With `N[C@@]1(C(=O)O)CO[C@H]2[C@H](C(=O)O)[C@H]21` [LY379268], the basal dopamine levels result in the data set with mGluR2/3 [1] is given as “reduce”.

On to `N[C@]1(C(=O)O)[C@H]2[C@@H](C[C@H]1OCc1ccc(Cl)c(Cl)c1)[C@]2(F)C(=O)O` [MGS0039], for which the basal dopamine levels result with mGluR2/3 [1] is listed as “increase”.

For `Cc1cccc(C#Cc2ccccc2)n1` [MPEP, 2-methyl-6-(phenylethynyl)pyridine], the “lever pressing (measure of relapse)” value was “reduced cocaine relapse; also recorded: reduced lever pressing” at mGluR5 [7] (acute MPEP in animals treated chronically with NAC); “without effect and not” on mGluR5 [7] (acute MPEP in animals treated chronically with saline). The “relapse to cocaine seeking (lever pressing)” value on mGluR5 [5] (setting [12]) is given as “significantly reduced lever pressing; also recorded: inhibit relapse”; on mGluR5 [5] (vehicle treated rats), “not”.

As to `CC(N)(C(=O)O)c1ccc(P(=O)(O)O)cc1` (stereo not drawn) [MPPG, α-methyl-4-phosphonophenylglycine], the basal dopamine levels result with mGluR2/3 [1] is reported as “increase”.

`CC(=O)N[C@@H](CS)C(=O)O` [NAC, N-acetylcysteine]: the peak concentration in data set [8] (600 mg i.v. dose) is 300 µM. Besides, in data set [8] (humans, 400 mg oral dose), the “peak NAC plasma concentration” value is 10 to 17 µM. In addition, in data set [8] (humans, 600 mg oral dose), the “peak NAC plasma concentration” value was 16 µM. Besides, in data set [8] (humans, 400 or 600 mg oral dose), the “time of peak NAC plasma concentration after administration” value was “one”. Besides, in [8] (oral NAC), the half-life – broadly, the time in which the quantity being followed falls by half – is 6.25 h; the oral bioavailability is 4-10%; the “time to peak plasma concentration following ingestion” value is 1 to 2 h. In addition, the side effects entry in [9] (clinical use) was “minimal and mostly limited to gastrointestinal discomfort; also recorded: without any noticeable side effects”. Further, the toxicity result in data set [9] (compared with cystine and cysteine) is recorded as “less toxic”. Besides, in data set [10], the solubility entry is “more soluble”. Moreover, the extinction responding entry in the data set on XC transporter (NAC for 2 weeks during extinction from heroin self-administration) is “reduces extinction responding”. Further, the reinstatement result in the data set on XC transporter (NAC for 2 weeks during extinction from heroin self-administration, up to one month after last injection) is “prevents reinstatement”. In addition, in the data set with XC transporter (NAC treatment during self-administration, after chronic cocaine), the extinction responding entry is “reduces extinction responding”. The “extracellular glutamate levels in the accumbens” value in the data set on XC transporter (after chronic cocaine) is recorded as “normalizes”. For the same compound, the “relapse to drug seeking” value in the data set on XC transporter (animal models of drug addiction) is “inhibit relapse to cocaine and heroin; also recorded: prevents relapse to drug seeking”. The protection against relapse result in the data set on XC transporter (chronic NAC during cocaine self-administration or heroin extinction, several weeks after last NAC injection) is given as “enduring protection against relapse”. Also, in data set [11], the “cocaine, nicotine and marijuana use” value is “reduces but does not abolish”; the compulsive gambling behavior entry is on record as “reduce”; the “desire for cocaine use” value was “reduce”; the marijuana abuse entry was “reduce”. Besides, the “number of cigarettes smoked” value in [11] is reported as “reduce”.

Regarding `N[C@@H](CSSC[C@H](N)C(=O)O)C(=O)O` [cystine], the solubility entry in [10] is given as “very limited solubility”. Moreover, the extracellular glutamate levels result in the data set on system XC− is recorded as “increases”.

Values taken from patent US20120046232A1, “COMPOSITIONS AND METHODS FOR REDUCING RELAPSE OF ADDICTIVE BEHAVIOR” (Medical University of South Carolina, priority 2010, published 2012).
